In patent US7996156B2, “Methods for predicting properties of molecules” (priority 2002, dated 2011):

target: T1, estrogen receptor (Rattus norvegicus, UniProt P06211); test: Competitive ER binding assay with [3H]E2 in rat uterine cytosol (NCTR); details: not given
T1 construct: in rat uterine cytosol, which was obtained from ovariectomized uteri of Sprague-Dawley rats; from tissue; host or cells: uterine cytosol of ovariectomized Sprague-Dawley rats
T1 sequence (P06211 1-600): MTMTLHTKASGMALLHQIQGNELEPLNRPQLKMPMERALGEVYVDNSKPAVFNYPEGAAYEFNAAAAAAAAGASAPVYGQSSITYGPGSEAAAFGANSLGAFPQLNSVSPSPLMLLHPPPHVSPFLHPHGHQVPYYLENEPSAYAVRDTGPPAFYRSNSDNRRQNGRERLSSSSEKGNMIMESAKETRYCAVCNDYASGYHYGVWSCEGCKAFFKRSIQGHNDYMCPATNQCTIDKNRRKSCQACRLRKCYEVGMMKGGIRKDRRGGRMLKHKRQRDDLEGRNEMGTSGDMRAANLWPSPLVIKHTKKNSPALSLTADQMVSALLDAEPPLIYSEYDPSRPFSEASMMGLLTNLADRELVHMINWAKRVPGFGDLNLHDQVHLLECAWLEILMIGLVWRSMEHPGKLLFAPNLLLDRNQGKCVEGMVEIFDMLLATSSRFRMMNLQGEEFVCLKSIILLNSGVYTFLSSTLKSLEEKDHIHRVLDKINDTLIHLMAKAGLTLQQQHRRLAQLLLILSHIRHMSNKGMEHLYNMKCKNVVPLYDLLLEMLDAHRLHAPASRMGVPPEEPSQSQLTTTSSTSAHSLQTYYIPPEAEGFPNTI
Excerpt: The log relative binding activity (RBA) data for these 130 structurally diverse compounds was used to train the CoSCoSA models. The data was produced at NCTR using a competitive ER binding assay with radiolabeled estradiol ([^3H]E2) in rat uterine cytosol, which was obtained from ovariectomized uteri of Sprague-Dawley rats. […] For each of the 130 compounds, the ^13C 2D ^13C—^13C COSY NMR experiment was simulated using the ACD Labs CNMR version 5.0 2D predictor software. The COSY NMR spectra could be saved as two tables per compound.

Compound	Exp. Log(RBA)
4-hydroxytamoxifen	2.24
C[Si](C)(O[Si](C)(C)c1ccccc1)c1ccccc1 [1,3-diphenyltetramethyldisiloxane]	−3.16
O=C(C(=O)c1ccc(O)cc1O)c1ccc(O)cc1O [2,2′,4,4′-tetrahydroxybenzil]	−0.68
Oc1ccc(Cl)cc1Cc1cc(Cl)ccc1O [2,2′-methylenebis(4-chlorophenol)]	−2.45
Clc1ccc(-c2ccccc2Cl)cc1 [2,4′-dichlorobiphenyl]	−3.61
Oc1ccc(-c2cc(Cl)ccc2Cl)cc1 [2,5-dichloro-4′-biphenylol]	−1.44
C[C@]12CC[C@@H]3c4cc(O)c(O)cc4CC[C@H]3[C@@H]1CC[C@@H]2O [2-hydroxyestradiol]	1.47
O=C(/C=C/c1ccc(O)cc1)c1ccc(O)cc1O [2′,4,4′-trihydroxychalcone]	−1.26
Oc1cccc(-c2ccccc2)c1 [3-phenylphenol]	−3.44
C[C@]12CC[C@@H](O)C[C@@H]1CC[C@@H]1[C@@H]2CC[C@]2(C)[C@@H](O)CC[C@@H]12 [3α-androstanediol]	−2.67
C[C@]12CC[C@H](O)C[C@@H]1CC[C@@H]1[C@@H]2CC[C@]2(C)[C@@H](O)CC[C@@H]12 [3β-androstanediol]	−0.92
O=S(=O)(c1ccc(O)cc1)c1ccc(O)cc1 [4,4′-sulfonyldiphenol]	−3.07
Oc1ccc(OCc2ccccc2)cc1 [4-benzyloxyphenol]	−3.44
CCCCCCCCCCCCc1ccc(O)cc1 [4-dodecylphenol]	−1.73
C[C@]12CC[C@@H]3c4ccc(O)c(O)c4CC[C@H]3[C@@H]1CC[C@@H]2O [4-hydroxyestradiol]	2.24
CCCCCCCCCc1ccc(O)cc1 [4-nonylphenol]	−1.53
CCC(C)(C)c1ccc(O)cc1 [4-tert-amylphenol]	−3.26
CC(C)(C)c1ccc(O)cc1 [4-tert-butylphenol]	−3.61
C[C@]12CC[C@@H]3c4ccc(O)cc4C[C@@H](CCCCCCCCC[S+]([O-])CCCC(F)(F)C(F)(F)F)[C@H]3[C@@H]1CC[C@@H]2O (some centres unmarked) [ICI182780]	1.57
O=C1C=CC(=C(c2ccc(O)cc2)c2ccc(O)cc2)C=C1 [aurin]	−1.5
O=c1cc(-c2ccccc2)oc2cc(O)c(O)c(O)c12 [baicalein]	−3.35
Oc1ccc(Cc2ccc(O)cc2)cc1 [bis-(4-hydroxyphenyl)methane]	−3.02
CCC(C)(c1ccc(O)cc1)c1ccc(O)cc1 [bisphenol B]	−1.07
O=C(/C=C/c1ccccc1)c1ccccc1 [chalcone]	−2.82
O=c1c(-c2ccc(O)cc2)coc2cc(O)ccc12 [daidzein]	−1.65
C/C=C(/C(=C/C)c1ccc(O)cc1)c1ccc(O)cc1 [dienestrol]	1.57
COc1cc(C(=C(Cl)Cl)c2ccc(O)cc2)ccc1O [dihydroxymethoxychlorolefin]	0.42
CC(CCC(=O)O)(c1ccc(O)cc1)c1ccc(O)cc1 [diphenolic acid]	−3.13
CC/C(=C(/c1ccc(OCCN(C)C)cc1)c1cccc(O)c1)c1ccccc1 [droloxifene]	1.18
Oc1ccc([C@H]2COc3cc(O)ccc3C2)cc1 [equol]	−0.82

same assay, conditions: relative binding affinity vs 17-β-estradiol (RBA 100), rat uterine cytosol, 130 compound training set

Compound	Exp. Log(RBA)
4-ethyl-7-OH-(p-meoxyphenol)-dihydro-1-benzopyran-2-one	−0.05
C[C@]12CC[C@@H]3c4ccc(O)cc4[C@@H](O)C[C@H]3[C@@H]1CC[C@@H]2O [1,3,5-Estratrien-3,6α-17β-triol]	−0.15
Oc1ccc(-c2cc(Cl)c(Cl)c(Cl)c2Cl)cc1 [2,3,4,5-tetraCl-4′-biphenylol]	−0.64
O=C(c1ccccc1)c1ccc(O)cc1O [2,4-dihyroxybenzophenone]	−2.61
CCC(c1ccc(O)cc1)C(CC)c1c(C)cc(O)cc1C (centres unmarked) [2,6-dimethylhexestrol]	1.11
Oc1ccc(-c2ccccc2)c(Cl)c1 [2-Cl-4-biphenylol]	−2.77
Oc1c(Cl)cc(-c2cc(Cl)c(O)c(Cl)c2)cc1Cl [3,3′,5,5′-tetraCl-4,4′-biphenyldiol]	−3.25
CCC(c1ccc(O)c(O)c1)C(CC)c1ccc(O)c(O)c1 (centres unmarked) [3,3′-dihydroxyhestrol]	1.19
O=c1c(O)c(-c2ccc(O)cc2)oc2ccc(O)cc12 [3,6,4′-trihydroxyflavone]	−0.35
C[C@]12CC[C@@H]3c4ccccc4CC[C@H]3[C@@H]1CC[C@@H]2O [3-deoxyestradiol]	−0.3
C[C@]12CC[C@@H]3c4ccccc4CC[C@H]3[C@@H]1CCC2=O [3-deoxyestrone]	−2.2
CCc1cccc(O)c1 [3-ethylphenol]	−3.87
COc1ccc2c(c1)CC[C@@H]1[C@@H]2CC[C@]2(C)[C@@H](O)[C@H](O)C[C@@H]12 [3-methylestriol]	−1.65
O=c1c(-c2ccc(O)c(O)c2)coc2cc(O)ccc12 [3′,4′,7-trihydroxyisoflavone]	−2.35
O=C1CC(c2cccc(O)c2)Oc2ccccc21 (centres unmarked) [3′-OH-flavanone]	−2.78
Oc1ccc(CCc2ccc(O)cc2)cc1 [4,4′-(1,2-ethanediyl)bisphenol]	−1.44
Oc1ccc(C=Cc2ccc(O)cc2)cc1 [4,4′-dihroxystilbene]	−0.55
O=C(c1ccc(O)cc1)c1ccc(O)cc1 [4,4′-dihydroxybenzophenone]	−2.46
O=c1cc(-c2ccc(O)cc2)oc2ccc(O)cc12 [4,6-dihydroxyflavone]	−0.82

Compound	Exp. Log(RBA)
Cc1cc(O)ccc1Cl [4-Cl-3-methylphenol]	−3.38
Oc1ccc(-c2ccc(Cl)cc2)cc1 [4-Cl-4′-biphenylol]	−2.18
O=C(/C=C/c1ccc(O)cc1)c1ccccc1 [4-OH-chalcone]	−2.43
CCCCCCCOc1ccc(O)cc1 [4-heptyloxyphenol]	−2.88
Oc1ccc(CCc2ccccc2)cc1 [4-phenethylphenol]	−2.69
O=C(/C=C/c1ccccc1)c1ccc(O)cc1 [4′-OH-chalcone]	−2.43
O=C1CC(c2ccc(O)cc2)Oc2ccccc21 (centres unmarked) [4′-hydroxyflavanone]	−2.65
O=C1CC(c2ccccc2)Oc2ccc(O)cc21 (centres unmarked) [6-hydroxyflavanone]	−3.05
O=c1cc(-c2ccccc2)oc2ccc(O)cc12 [6-hydroxyflavone]	−3.41
C[C@@]12CCC[C@H]1[C@@H]1CCc3cc(O)ccc3[C@H]1CC2 [17-deoxyestradiol]	1.14
CCCCN(C)C(=O)CCCCCCCCCC[C@@H]1Cc2cc(O)ccc2[C@H]2CC[C@]3(C)[C@@H](O)CC[C@H]3[C@H]12 [ICI164384]	1.16
O=C(OCc1ccccc1)c1ccc(O)cc1 [benzyl-4-hydroxybenzoate]	−2.54
COc1ccc(-c2coc3cc(O)cc(O)c3c2=O)cc1 [biochanin A]	−2.37
CC(C)(c1ccc(O)cc1)c1ccc(O)cc1 [bisphenol A]	−2.11
CC/C(=C(/CC)c1ccc(OC)cc1)c1ccc(OC)cc1 [dietheylstilbestrol dimethyl ether]	−1.25
CC/C(=C(/CC)c1ccc(OC)cc1)c1ccc(O)cc1 [diethylstilbestrol monomethyl ether]	1.31
C/C(=C(/C)c1ccc(O)cc1)c1ccc(O)cc1 [dimethylstibestrol]	1.16
CC[C@H]1c2ccc3cc(OC)ccc3c2CC[C@@]1(C)C(=O)O [doisynoestrol]	−2.74
CCOC(=O)c1ccc(O)cc1 [ethyl-4-hydrobenzoate]	−3.22
